Assay results: patent US10442788B2, “Hepatitis B antiviral agents” (ENANTA PHARMACEUTICALS, INC., priority 2015, dated 2019)

test system: HBV; assay: HepAD38 antiviral assay: reduction of viral product accumulation (virion DNA by qPCR, HBsAg or HBeAg by ELISA); type: cell-based; settings: Hepatitis B virus, 120 h; HepAD38 cells, five days after compound addition; 50% reduction of viral product accumulation relative to no drug controls; read-out: HepAD38 EC50
Protocol: Methods: HepAD38 cells are maintained as previously reported (Ladner et al, Antimicrob. Agents Chemother. 1997, […], 1715). Briefly, cells are passaged upon attaining confluency in DMEM/F12 media in the presence of 10% FBS, Penn/Strep, 250 μg/mL G418, and 1 ug/ml tetracycline. Novel compounds are screened by first washing cells three times with PBS to remove tetracycline, and plating in 96 well plates at 35,000 cells/well. Compounds dissolved in DMSO are then diluted 1:200 into wells containing cells. Five days after compound addition, material is harvested for analysis. For an extended 8 day analysis, cells are plated and treated as described above, but media and compound are refreshed on d2 and d5 post initial treatment.
On harvest day, virion DNA is obtained by lysing with Sidestep Lysis and Stabilization Buffer and then quantified via quantitative real time PCR. Commercially available ELISA kits are used to quantitate the viral proteins HBsAg (Alpco) or HbeAg (US Biological) by following the manufacturer's recommended protocol after diluting samples to match the linear range of their respective assays. Irrespective of readout, compound concentrations that reduce viral product accumulation in the cell lysates or supernatants by 50% relative to no drug controls (EC50) are reported; EC50 ranges are as follows: A<1 μM; B 1-10 μM; C>10 μM.

`O=C(NCCCNS(=O)(=O)c1cc(-c2nc(-c3ccc(Br)c(F)c3)c[nH]2)ccc1Cl)OCc1ccccc1` [Example 180] and `O=C(NCCCNS(=O)(=O)c1cc(-c2nc(-c3ccc(Br)c(F)c3)c[nH]2)ccc1Cl)c1ccccc1` [Example 181] cannot be ordered by EC50: under 1 µM for the first, under 1 µM for the second.

`CC(C)(C)OC(=O)NCC1CN(S(=O)(=O)c2cc(-c3ncc(-c4ccc(F)c(Br)c4)[nH]3)ccc2Cl)C1` [Example 182] and `CC(C)(C)OC(=O)NC1CN(S(=O)(=O)c2cc(-c3ncc(-c4ccc(Br)c(F)c4)[nH]3)ccc2Cl)C1` [Example 183] cannot be ordered by EC50: under 1 µM for the first, under 1 µM for the second.

Compared with `O=S(=O)(c1cc(-c2nc(-c3ccc(Br)c(F)c3)c(Cl)[nH]2)ccc1Cl)N1CCC(O)CC1` [Example 184], `O=S(=O)(c1cc(-c2nc(-c3ccc(F)c(Br)c3)c(F)[nH]2)ccc1Cl)N1CCC(O)CC1` [Example 197] is lower in EC50: over 10 µM for the first, under 1 µM for the second.

`COC(=O)NCC(O)CNS(=O)(=O)c1cc(-c2nc(-c3ccc(Br)c(F)c3)c[nH]2)ccc1Cl` (stereo not drawn) [Example 185] and `COC(=O)NC(C)CCNS(=O)(=O)c1cc(-c2nc(-c3ccc(Br)c(F)c3)c[nH]2)ccc1Cl` (stereo not drawn) [Example 188] cannot be ordered by EC50: under 1 µM for the first, under 1 µM for the second.

`CNC(=O)OCCCNS(=O)(=O)c1cc(-c2nc(-c3ccc(Br)c(F)c3)c[nH]2)ccc1Cl` [Example 186] and `COC(=O)NCCCCCCNS(=O)(=O)c1cc(-c2nc(-c3ccc(Br)c(F)c3)c[nH]2)ccc1Cl` [Example 241] cannot be ordered by EC50: under 1 µM for the first, under 1 µM for the second.

`COC(=O)NCCCN(C)S(=O)(=O)c1cc(-c2nc(-c3ccc(Br)c(F)c3)c[nH]2)ccc1Cl` [Example 190] and `COC(=O)NCCCN(CCCO)S(=O)(=O)c1cc(-c2nc(-c3ccc(Br)c(F)c3)c[nH]2)ccc1Cl` [Example 236] cannot be ordered by EC50: under 1 µM for the first, under 1 µM for the second.

Going from `N#CCCCCNS(=O)(=O)c1cc(-c2nc(-c3ccc(Br)c(F)c3)c[nH]2)ccc1Cl` [Example 191] to `O=S(=O)(NCCCCc1nnn[nH]1)c1cc(-c2nc(-c3ccc(Br)c(F)c3)c[nH]2)ccc1Cl` [Example 215], the EC50 rises from under 1 µM to over 10 µM. The first is the more potent here.

First: COC(=O)NC1(C(=O)NCCCNS(=O)(=O)c2cc(-c3nc(-c4ccc(Br)c(F)c4)c[nH]3)ccc2Cl)CC1 [Example 192]
Second: COC(=O)NCC(=O)NCCCNS(=O)(=O)c1cc(-c2nc(-c3ccc(Br)c(F)c3)c[nH]2)ccc1Cl [Example 201]
The EC50 of the first is lower: under 1 µM for the first, 1 to 10 µM for the second. The first is the more potent here.

Compared with `O=C(CCCNS(=O)(=O)c1cc(-c2nc(-c3ccc(Br)c(F)c3)c[nH]2)ccc1Cl)Nc1ccccc1` [Example 194], `O=C(Nc1ccccc1)N1CCN(S(=O)(=O)c2cc(-c3nc(-c4ccc(Br)c(F)c4)c[nH]3)ccc2Cl)CC1` [Example 206] is higher in EC50: under 1 µM for the first, over 10 µM for the second.

`O=S(=O)(c1cc(-c2nc(-c3ccc(Br)c(F)c3)c[nH]2)ccc1Cl)N1CCN(c2cccnc2)CC1` [Example 195] and `O=S(=O)(c1cc(-c2nc(-c3ccc(Br)c(F)c3)c[nH]2)ccc1Cl)N1CCN(c2ccncc2)CC1` [Example 196] cannot be ordered by EC50: under 1 µM for the first, under 1 µM for the second.

`CC(C)(C)OC(=O)N[C@H]1C[C@H](NS(=O)(=O)c2cc(-c3nc(-c4ccc(Br)c(F)c4)c[nH]3)ccc2Cl)C1` [Example 198] and `CC(C)(C)OC(=O)NCC1CCN(S(=O)(=O)c2cc(-c3nc(-c4ccc(Br)c(F)c4)c[nH]3)ccc2Cl)C1` (stereo not drawn) [Example 199] cannot be ordered by EC50: under 1 µM for the first, under 1 µM for the second.

First: CN(C)CC(=O)NCCCNS(=O)(=O)c1cc(-c2nc(-c3ccc(Br)c(F)c3)c[nH]2)ccc1Cl [Example 200]
Second: CC(C)(C)OC(=O)NCCCCCCNS(=O)(=O)c1cc(-c2nc(-c3ccc(Br)c(F)c3)c[nH]2)ccc1Cl [Example 242]
The EC50 of the first is higher: 1 to 10 µM for the first, under 1 µM for the second.

First: COc1ccc(-c2c[nH]c(-c3ccc(Cl)c(S(=O)(=O)N4CCC(O)CC4)c3)n2)cc1Cl [Example 202]
Second: COc1cc(-c2c[nH]c(-c3ccc(Cl)c(S(=O)(=O)N4CCC(O)CC4)c3)n2)ccc1Cl [Example 216]
The EC50 of the first is higher: over 10 µM for the first, under 1 µM for the second. The second is the more potent here.

Compared with `[2H]C([2H])([2H])Oc1cccc(-c2c[nH]c(-c3ccc(Cl)c(S(=O)(=O)N4CCC(O)CC4)c3)n2)c1` [Example 203], `[2H]C([2H])([2H])Oc1ccc(-c2c[nH]c(-c3ccc(Cl)c(S(=O)(=O)N4CCC(O)CC4)c3)n2)cc1` [Example 217] is lower in EC50: over 10 µM for the first, 1 to 10 µM for the second.

`[2H]C([2H])([2H])Oc1cc(-c2c[nH]c(-c3ccc(Cl)c(S(=O)(=O)N4CCC(O)CC4)c3)n2)ccc1F` [Example 204] and `O=S(=O)(c1cc(-c2nc(-c3ccc(Br)c(F)c3)c[nH]2)ccc1Cl)N1CCC[C@@H](O)CC1` [Example 234] cannot be ordered by EC50: under 1 µM for the first, under 1 µM for the second.

`O=S(=O)(c1cc(-c2nc(-c3ccc(Br)c(F)c3)c[nH]2)ccc1Cl)N1CCN(c2cc(F)ccn2)CC1` [Example 205] and `O=S(=O)(c1cc(-c2nc(-c3ccc(Br)c(F)c3)c[nH]2)ccc1Cl)N1CCN(c2ccc(F)cn2)CC1` [Example 219] cannot be ordered by EC50: under 1 µM for the first, under 1 µM for the second.

First: O=P(O)(O)OC1CCN(S(=O)(=O)c2cc(-c3nc(-c4ccc(F)c(Br)c4)c[nH]3)ccc2Cl)CC1 [Example 207]
Second: O=S(=O)(c1cc(-c2nc(-c3ccc(Br)c(F)c3)c[nH]2)ccc1Cl)N1CCC[C@H](O)CC1 [Example 235]
The EC50 of the first is higher: 1 to 10 µM for the first, under 1 µM for the second. The second is the more potent here.

`C[C@@H]1CN(S(=O)(=O)c2cc(-c3ncc(-c4ccc(Br)c(F)c4)[nH]3)ccc2Cl)CC[C@H]1O` [Example 208] and `O=S(=O)(c1cc(-c2ncc(-c3ccc(Br)c(F)c3)[nH]2)ccc1Cl)N1CC[C@H](O)[C@H](O)C1` [Example 230] cannot be ordered by EC50: under 1 µM for the first, under 1 µM for the second.

Compared with `CC1CC(O)CCN1S(=O)(=O)c1cc(-c2ncc(-c3ccc(Br)c(F)c3)[nH]2)ccc1Cl` (stereo not drawn) [Example 209], `O=S(=O)(c1cc(-c2ncc(-c3ccc(Br)c(F)c3)[nH]2)ccc1Cl)N1CC[C@@H](O)C1` [Example 247] is higher in EC50: under 1 µM for the first, over 10 µM for the second.

`CC(C)(O)C1CN(S(=O)(=O)c2cc(-c3ncc(-c4ccc(Br)c(F)c4)[nH]3)ccc2Cl)C1` [Example 210] and `O=S(=O)(c1cc(-c2ncc(-c3ccc(Br)c(F)c3)[nH]2)ccc1Cl)N1C[C@@H](O)[C@@H](O)C1` [Example 228] cannot be ordered by EC50: under 1 µM for the first, under 1 µM for the second.

First: O=S(=O)(N[C@H]1C[C@@H](O)C1)c1cc(-c2ncc(-c3ccc(Br)c(F)c3)[nH]2)ccc1Cl [Example 211]
Second: O=S(=O)(NC1CC(O)C1)c1cc(-c2ncc(-c3ccc(Br)c(F)c3)[nH]2)ccc1Cl (stereo not drawn) [Example 223]
The EC50 of the first is lower: under 1 µM for the first, 1 to 10 µM for the second.

`O=S(=O)(N[C@H]1CC[C@H](O)CC1)c1cc(-c2ncc(-c3ccc(Br)c(F)c3)[nH]2)ccc1Cl` [Example 212] and `O=S(=O)(N[C@H]1CC[C@@H](O)CC1)c1cc(-c2ncc(-c3ccc(Br)c(F)c3)[nH]2)ccc1Cl` [Example 227] cannot be ordered by EC50: under 1 µM for the first, under 1 µM for the second.

`O=S(=O)(NC[C@H](O)CO)c1cc(-c2ncc(-c3ccc(Br)c(F)c3)[nH]2)ccc1Cl` [Example 213] and `O=S(=O)(NC[C@@H](O)CO)c1cc(-c2ncc(-c3ccc(Br)c(F)c3)[nH]2)ccc1Cl` [Example 214] cannot be ordered by EC50: under 1 µM for the first, under 1 µM for the second.

Compared with `O=S(=O)(c1cc(-c2nc(-c3ccc(Br)c(F)c3)c[nH]2)ccc1Cl)N1CCC(c2ccccn2)CC1` [Example 220], `O=S(=O)(c1cc(-c2nc(-c3ccc(Br)c(F)c3)c[nH]2)ccc1Cl)N1CC=C(c2ccccn2)CC1` [Example 221] is higher in EC50: under 1 µM for the first, 1 to 10 µM for the second.

Compared with `O=S(=O)(c1cc(-c2nc(-c3ccc(Br)c(F)c3)c[nH]2)ccc1Cl)N1CCN(S(=O)(=O)C2CC2)CC1` [Example 222], `COC1CCCCC1N1CCN(S(=O)(=O)c2cc(-c3nc(-c4ccc(Br)c(F)c4)c[nH]3)ccc2Cl)CC1` (stereo not drawn) [Example 240] is lower in EC50: over 10 µM for the first, under 1 µM for the second. The second is the more potent here.

`CC(C)(O)CNS(=O)(=O)c1cc(-c2ncc(-c3ccc(Br)c(F)c3)[nH]2)ccc1Cl` [Example 224] and `CC(C)(O)CCNS(=O)(=O)c1cc(-c2ncc(-c3ccc(Br)c(F)c3)[nH]2)ccc1Cl` [Example 225] cannot be ordered by EC50: under 1 µM for the first, under 1 µM for the second.

`O=S(=O)(c1cc(-c2ncc(-c3ccc(Br)c(F)c3)[nH]2)ccc1Cl)N1CCC[C@H](O)C1` [Example 226] and `O=S(=O)(c1cc(-c2ncc(-c3ccc(Br)c(F)c3)[nH]2)ccc1Cl)N1CC[C@H](O)[C@@H](O)C1` [Example 231] cannot be ordered by EC50: under 1 µM for the first, under 1 µM for the second.

`O=S(=O)(c1cc(-c2ncc(-c3ccc(Br)c(F)c3)[nH]2)ccc1Cl)N1C[C@@H](O)[C@H](O)C1` [Example 229] and `O=S(=O)(c1cc(-c2ncc(-c3ccc(Br)c(F)c3)[nH]2)ccc1Cl)N1C[C@@H]2[C@@H](O)[C@@H]2C1` [Example 243] cannot be ordered by EC50: under 1 µM for the first, under 1 µM for the second.

`O=S(=O)(c1cc(-c2nc(-c3ccc(Br)c(F)c3)c[nH]2)ccc1Cl)N1CCCC[C@H](O)C1` [Example 232] and `O=S(=O)(c1cc(-c2nc(-c3ccc(Br)c(F)c3)c[nH]2)ccc1Cl)N1CCCC[C@@H](O)C1` [Example 233] cannot be ordered by EC50: under 1 µM for the first, under 1 µM for the second.

`O=S(=O)(NCCCNc1ncco1)c1cc(-c2nc(-c3ccc(Br)c(F)c3)c[nH]2)ccc1Cl` [Example 237] and `C[C@@H]1CCN(S(=O)(=O)c2cc(-c3nc(-c4ccc(Br)c(F)c4)c[nH]3)ccc2Cl)C[C@@H]1O` [Example 244] cannot be ordered by EC50: under 1 µM for the first, under 1 µM for the second.

`O=S(=O)(c1cc(-c2nc(-c3ccc(CC(F)(F)F)cc3)c[nH]2)ccc1Cl)N1CCC(O)CC1` [Example 238] and `O=S(=O)(c1cc(-c2nc(-c3cccc(CC(F)(F)F)c3)c[nH]2)ccc1Cl)N1CCC(O)CC1` [Example 239] cannot be ordered by EC50: over 10 µM for the first, over 10 µM for the second.

With `C[C@H]1CCN(S(=O)(=O)c2cc(-c3nc(-c4ccc(Br)c(F)c4)c[nH]3)ccc2Cl)C[C@@H]1O` [Example 245] the EC50 was under 1 µM.
